The results in this text go back to patent US8178575B2, “Derivatives of azabicyclo octane, the method of making them and the uses thereof as inhibitors of dipeptidyl peptidase IV” (Shanghai Hengrui Pharmaceutical Co., Ltd., priority 2007, dated 2012).

Where a name gives a salt, the structure may show the parent alone.

One experiment addresses T1, FAP (Homo sapiens, UniProt Q12884).
T1 sequence (Q12884 1-760): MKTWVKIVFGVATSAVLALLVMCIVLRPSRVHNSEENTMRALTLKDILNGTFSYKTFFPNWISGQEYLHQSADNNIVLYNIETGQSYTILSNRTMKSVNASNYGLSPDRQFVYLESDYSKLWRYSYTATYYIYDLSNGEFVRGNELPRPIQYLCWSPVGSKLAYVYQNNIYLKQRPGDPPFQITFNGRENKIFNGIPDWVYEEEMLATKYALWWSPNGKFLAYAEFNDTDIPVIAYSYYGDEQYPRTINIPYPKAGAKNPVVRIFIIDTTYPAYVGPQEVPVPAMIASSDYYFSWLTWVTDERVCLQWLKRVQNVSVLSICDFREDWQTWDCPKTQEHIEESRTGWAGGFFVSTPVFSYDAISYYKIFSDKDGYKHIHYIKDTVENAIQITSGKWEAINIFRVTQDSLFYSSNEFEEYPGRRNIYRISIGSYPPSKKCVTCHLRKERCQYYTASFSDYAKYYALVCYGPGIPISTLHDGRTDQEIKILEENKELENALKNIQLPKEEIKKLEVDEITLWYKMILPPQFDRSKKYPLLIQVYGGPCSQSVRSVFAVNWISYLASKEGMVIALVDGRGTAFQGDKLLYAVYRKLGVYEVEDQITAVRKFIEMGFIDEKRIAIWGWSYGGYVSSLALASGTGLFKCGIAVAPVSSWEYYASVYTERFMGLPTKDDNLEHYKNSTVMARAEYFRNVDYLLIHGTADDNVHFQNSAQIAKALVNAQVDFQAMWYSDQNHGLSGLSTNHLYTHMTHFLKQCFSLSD
Description: Selective activity determination of DPPIV inhibitors, fluorescence substrate. In kind it is biochemical. The source says: (§1) It can cut off the first two amino acids in many of the N-peptide to change or lose its biological activity. Gene knockout animal and human experiments indicate that reducing DPPIV activity effectively and specifically in vivo can improve blood insulin content and lower blood sugar levels, so as to improve the symptoms of diabetes effectively.
(§2) By using the insect expression system, the recombinant proteins of DPPIV, DPP8, DPP9 and QPP had been obtained. The activities of the […] enzymes were detected by fluorescence Substrate. The inhibitory effects of compounds were evaluated by the effects of different compounds on inhibiting enzyme activities. Positive reference compound was LAF237.

The subject of experiment [1] is type II diabetes KKAy mice. Kind of experiment: Oral glucose tolerance test in type II diabetes KKAy mice. In kind it is in vivo. The method, then: Normal KKAy mice had been fasted for 6 hours, and then were randomly grouped according to weights and fasting blood glucose, 5 mice in each group. The groups included a blank control group as well as different doses of the treatment groups as follows:
30 minutes later, animals were administered 2.5 g/kg (female KKAy mice) or 1.5 g/kg (male KKAy mice) glucose by gavage. After administration of glucose at 30, 60 and 120 minuets, serum glucose levels were determined by Glucometer.
• 3. Mean±SD and Student-t test or Anova were used in data statistical analysis. • 4.

The next experiment addresses T2, QPP (Homo sapiens, UniProt Q9UHL4).
T2 construct: made in house; host or cells: insect expression system
Description: Selective activity determination of DPPIV inhibitors, recombinant enzyme, fluorescence substrate. Format: biochemical. Particulars: recombinant protein from insect expression system.
From the text: as §1, §2

The target in a further experiment is T3, DPPIV (Homo sapiens, UniProt P27487).
T3 construct: made in house; host or cells: insect expression system
T3 sequence (P27487 whole entry): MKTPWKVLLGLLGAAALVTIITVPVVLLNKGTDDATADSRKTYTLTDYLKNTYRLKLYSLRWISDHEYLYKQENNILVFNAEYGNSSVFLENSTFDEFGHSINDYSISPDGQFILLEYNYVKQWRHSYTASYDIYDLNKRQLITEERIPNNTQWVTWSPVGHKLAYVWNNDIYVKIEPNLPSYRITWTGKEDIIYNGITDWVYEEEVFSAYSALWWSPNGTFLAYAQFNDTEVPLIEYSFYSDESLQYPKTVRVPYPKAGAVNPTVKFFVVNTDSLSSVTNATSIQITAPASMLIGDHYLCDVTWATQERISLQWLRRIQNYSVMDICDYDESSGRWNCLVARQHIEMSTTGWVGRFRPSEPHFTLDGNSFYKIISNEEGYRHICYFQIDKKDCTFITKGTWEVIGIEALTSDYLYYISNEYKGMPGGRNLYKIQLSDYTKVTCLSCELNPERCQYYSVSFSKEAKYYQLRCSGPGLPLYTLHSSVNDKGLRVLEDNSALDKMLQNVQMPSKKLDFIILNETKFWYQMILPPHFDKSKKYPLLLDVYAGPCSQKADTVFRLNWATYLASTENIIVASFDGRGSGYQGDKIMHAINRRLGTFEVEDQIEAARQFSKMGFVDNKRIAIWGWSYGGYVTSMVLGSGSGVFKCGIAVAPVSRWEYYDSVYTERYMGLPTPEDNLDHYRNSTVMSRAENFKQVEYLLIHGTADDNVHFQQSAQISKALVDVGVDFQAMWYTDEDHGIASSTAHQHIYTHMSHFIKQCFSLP
The experiment is described as above. Format: biochemical.
From the text: as §1, §2

Another experiment concerns normal ICR mice. Kind of experiment: Oral glucose tolerance test in normal ICR mice. In kind it is in vivo. The conditions noted are these: male ICR mice, 30 minutes after 2.5 g/kg glucose. The method, then:
Normal male ICR mice were randomly grouped according to weights, 6 mice in each group. The groups included a blank control group as well as different doses of the treatment groups as follows:
Animals in each group had been fasted for 6 hours, and then pretreated with compounds or double distilled water by gavage respectively in single administration. 30 minutes later, animals were administered 2.5 g/kg glucose by gavage. Before administration and after administration of glucose at 30, 60 and 120 minuets, blood was taken to determine serum glucose levels.
Serum glucose is determined by glucose kit. 250 μl working enzyme solution was taken, and then 5 μl serum was added to the solution. A blank tube (5 μl double distilled water was added) and a standard tube (5 μl glucose standard solution was added) were established simultaneously, shaking respectively, and in 37° C. water bath for 20 minutes. The blank tube was tuned with, and then calorimetric assay was determined at OD505 nm. Serum glucose concentration (BG, mmol/l)=ODsample tube/ODstandard tube×5.55 Data Processing and Statistical Analysis: • 1. Mean±SD and Student-t test were used in data statistical analysis. • 2. The percentage of blood glucose decline in 30 minutes after sugar administration as well as the area under the curve (AUC) was calculated.

[2] abbreviates: female KKAy mice, 10 mg/kg by gavage, 30 minutes after 2.5 g/kg glucose.
Setting [3] is: male KKAy mice, 10 mg/kg by gavage, 30 minutes after 1.5 g/kg glucose.
Where [4] appears, read: male KKAy mice, 30 mg/kg by gavage, 30 minutes after 1.5 g/kg glucose.
Setting [5] is: Test 1, high dose (10 mg/kg by gavage).
The mark [6] stands for this setting: Test 1, low dose (1 mg/kg by gavage).
The mark [7] stands for this setting: Test 1, middle dose (3 mg/kg by gavage).
[8] abbreviates: Test 2, high dose (10 mg/kg by gavage).
Where [9] appears, read: Test 2, low dose (1 mg/kg by gavage).
Where [10] appears, read: Test 2, middle dose (3 mg/kg by gavage).

As to `COC(=O)N1C[C@H]2C[C@@H](NCC(=O)N3CCC[C@H]3C#N)C[C@H]2C1` (relative stereo) [Example 2, cis-5-[2-(2-Cyano-pyrrolidin-1-yl)-2-oxo-ethylamino]-hexahydro-cyclopenta[c]pyrrole-2-carboxylic acid methyl ester hydrochloride], the 50% inhibitory concentration (IC50) (as a rule, the concentration that inhibits the measured activity by half) was 476 ± 112 nM at FAP, > 56000 nM on QPP and 98 ± 36.4 nM on DPPIV. Further, the “percentage of blood glucose decreased vs control group” value (“percentage of blood glucose decreased” below) in experiment [1] (setting [2]) is reported as 21.55%; in experiment [1] (setting [3]) it was 13.79%; in experiment [1] (setting [4]), 12.23%; with normal ICR mice (setting [5]) it was 26.93%; in the experiment on normal ICR mice (setting [6]), 25.54%; with normal ICR mice (setting [7]) it was 25.92%. Moreover, the “percentage of blood glucose decreased” value is 27.75% with normal ICR mice (setting [8]), 24.51% in the experiment on normal ICR mice (setting [9]) and 26.96% with normal ICR mice (setting [10]).
Turning to `CN(C)C(=O)N1C[C@H]2C[C@@H](NCC(=O)N3CCC[C@H]3C#N)C[C@H]2C1` (relative stereo) [Example 1, cis-5-[2-(2-Cyano-pyrrolidin-1-yl)-2-oxo-ethylamino]-hexahydro-cyclopenta[c]pyrrole-2-carboxylic acid dimethylamide hydrochloride], the “percentage of blood glucose decreased” value in experiment [1] (female KKAy mice, 3 mg/kg by gavage, 30 minutes after 2.5 g/kg glucose) is on record as 40.63%; in experiment [1] (setting [2]), 24.68%; in experiment [1] (setting [3]), 16.22%; in experiment [1] (setting [4]) it was 17.15%; in the experiment on normal ICR mice (setting [5]), 31.85%; in the experiment with normal ICR mice (setting [6]), 19.16%. Also, the “percentage of blood glucose decreased” value in the experiment on normal ICR mice (setting [7]) was found to be 22.85%; in the experiment with normal ICR mice (setting [8]), 32.05%; in the experiment with normal ICR mice (setting [9]), 26.10%; in the experiment with normal ICR mice (setting [10]), 30.24%.
